The values that follow come from US12528840B2, “Transcription active complex targeting cancer drug from viral protein sequence” (The Regents of the University of California, priority 2020, dated 2026).

One data set concerns BCBL-1 PEL cell line. Put plainly: PEL xenograft study in NRG mice. The source says: We mapped the responsible domain and molecular mechanisms with biochemical and genetic approaches (FIG. 1).
Based on cell killing efficacies of the peptide in vitro, we select two peptides and examine the efficacies to inhibit tumor growth in xenograft models. We use a PEL cell xenograft models. […] Standardized PK/PD studies are completed in rat models at the UCD comprehensive cancer center PK/PD core facility.
Amino acid sequence alignment identified homologous protein sequences in other gamma-herpesvirus protein sequence (The Top table in FIG. 8a, also shown in FIG. 2). Based on their alignment, “non-natural” protein sequences were generated by substituting specific amino acids (The peptides are: Wt d1-1, DS 3-1, DE 3-1, and Mut d1-1 (control peptide) from the top to the bottom in the Bottom Table in FIG. 8a). Those four peptides were used in MTT assays in FIG. 8b to examine the effects on cell growth of BCBL-1 […] effusion lymphoma (PEL) cell line. Also tested are three D-amino acid substitutions first two amino acids and c-terminal amino acid (ST d3-1), in comparison with one D-amino acid peptide (N-terminus) (Wt d3-1).

A further data set concerns CD19+ B cells. In words: CD19+ B cell response to sCD40L, live/dead staining. It is filed as cell-based. Particulars: 32 μM, sCD40L 1 μg/ml, 2 days. The protocol:
CD19^+ B cells were isolated with magnetic beads from PBMC of a healthy donor (n=1). Cells were washed and cultured at 1×10^6/ml in a 96 well plate (200 μl/well in triplicates) without or with sCD40L (1 μg/ml) in the presence of MBK50 (16 or 32 μM) or mutant peptide (32 μM) for 2 days. Live cells were determined as shown in FIG. 3 left panel using live/dead-red staining (live cells are gated as red-staining negative population). […] The peptide drug targets actively replicating B-cells that is consistent with MBK50 targeting MYC.

In the case of LSSILQGLYQLDT [MBK50], the “efficacy to target PEL in xenograft” value in the data set on BCBL-1 PEL cell line is reported as “demonstrated efficacies”. For the same sequence, the “toxicity to the host mice” value in the data set on BCBL-1 PEL cell line (xenograft studies) is on record as “without any measurable toxicities”. In the data set on CD19+ B cells, the live cell % entry is recorded as “reduced” and the total cell numbers entry is “increased”.
